Where two headings read alike, the source gives them in different places.
What was measured:
Assay in all cases: Kinase selectivity, DiscoverX scanMAX Kinase assay panel (% control)
Format in all cases: binding
[1] = molecular target: T1, kinases of the scanMAX Kinase assay panel (Homo sapiens, UniProt O75676); conditions: 1 uM in DMSO
T1 construct: purchased DiscoverX Co. (contract measurement) scanMAX Kinase assay panel
In short: (§1)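 Compounds tested at 1 uM against the scanMAX kinase panel. Signal expressed as % control = (compound − positive control)/(DMSO negative control − positive control) × 100, where positive control = 0% and DMSO = 100%; below 35% counted as activity on that kinase.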

[2] = molecular target: T2, kinases of the scanMAX Kinase assay panel (Homo sapiens, UniProt O94804); conditions: LOK; 1 uM
T2 construct: purchased DiscoverX Co. (contract measurement) scanMAX Kinase assay panel
In short: as §1

[3] = molecular target: T3, kinases of the scanMAX Kinase assay panel (Homo sapiens, UniProt P08922); conditions: kinase ROS1; 1 uM in DMSO
T3 construct: purchased DiscoverX Co. (contract measurement) scanMAX Kinase assay panel
In short: as §1

[4] = molecular target: T4, kinases of the scanMAX Kinase assay panel (Homo sapiens, UniProt Q00532); conditions: CDKL1; 1 uM
T4 construct: purchased DiscoverX Co. (contract measurement) scanMAX Kinase assay panel
In short: as §1

[5] = molecular target: T5, kinases of the scanMAX Kinase assay panel (Homo sapiens, UniProt Q12852); conditions: DLK; 1 uM
T5 construct: purchased DiscoverX Co. (contract measurement) scanMAX Kinase assay panel
T5 sequence (Q12852 1-859): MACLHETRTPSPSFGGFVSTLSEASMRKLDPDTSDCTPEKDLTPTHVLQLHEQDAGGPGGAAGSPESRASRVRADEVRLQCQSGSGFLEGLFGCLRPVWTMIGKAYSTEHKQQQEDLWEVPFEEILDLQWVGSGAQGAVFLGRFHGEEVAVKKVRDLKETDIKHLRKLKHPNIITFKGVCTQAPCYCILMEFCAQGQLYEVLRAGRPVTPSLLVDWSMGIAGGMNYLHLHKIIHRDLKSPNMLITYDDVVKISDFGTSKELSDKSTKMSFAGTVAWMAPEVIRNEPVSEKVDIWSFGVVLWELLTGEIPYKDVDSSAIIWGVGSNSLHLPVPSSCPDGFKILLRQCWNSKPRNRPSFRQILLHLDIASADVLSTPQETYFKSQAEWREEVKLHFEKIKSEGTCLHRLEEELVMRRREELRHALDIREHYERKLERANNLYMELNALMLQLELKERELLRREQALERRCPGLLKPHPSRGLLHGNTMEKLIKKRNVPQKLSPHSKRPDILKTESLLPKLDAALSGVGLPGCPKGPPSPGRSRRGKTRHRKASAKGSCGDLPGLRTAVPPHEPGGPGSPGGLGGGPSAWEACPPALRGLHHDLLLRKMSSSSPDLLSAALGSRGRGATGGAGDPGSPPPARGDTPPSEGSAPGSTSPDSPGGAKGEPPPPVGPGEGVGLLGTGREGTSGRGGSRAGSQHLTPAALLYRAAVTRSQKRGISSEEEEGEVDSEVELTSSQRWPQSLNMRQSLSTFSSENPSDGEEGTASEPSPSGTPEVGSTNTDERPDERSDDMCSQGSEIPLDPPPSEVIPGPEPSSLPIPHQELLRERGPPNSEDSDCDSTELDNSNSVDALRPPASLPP
In short: as §1

[6] = molecular target: T6, kinases of the scanMAX Kinase assay panel (Homo sapiens, UniProt Q8NFD2); conditions: ANKK1; 1 uM
T6 construct: purchased DiscoverX Co. (contract measurement) scanMAX Kinase assay panel
T6 sequence (Q8NFD2 1-765): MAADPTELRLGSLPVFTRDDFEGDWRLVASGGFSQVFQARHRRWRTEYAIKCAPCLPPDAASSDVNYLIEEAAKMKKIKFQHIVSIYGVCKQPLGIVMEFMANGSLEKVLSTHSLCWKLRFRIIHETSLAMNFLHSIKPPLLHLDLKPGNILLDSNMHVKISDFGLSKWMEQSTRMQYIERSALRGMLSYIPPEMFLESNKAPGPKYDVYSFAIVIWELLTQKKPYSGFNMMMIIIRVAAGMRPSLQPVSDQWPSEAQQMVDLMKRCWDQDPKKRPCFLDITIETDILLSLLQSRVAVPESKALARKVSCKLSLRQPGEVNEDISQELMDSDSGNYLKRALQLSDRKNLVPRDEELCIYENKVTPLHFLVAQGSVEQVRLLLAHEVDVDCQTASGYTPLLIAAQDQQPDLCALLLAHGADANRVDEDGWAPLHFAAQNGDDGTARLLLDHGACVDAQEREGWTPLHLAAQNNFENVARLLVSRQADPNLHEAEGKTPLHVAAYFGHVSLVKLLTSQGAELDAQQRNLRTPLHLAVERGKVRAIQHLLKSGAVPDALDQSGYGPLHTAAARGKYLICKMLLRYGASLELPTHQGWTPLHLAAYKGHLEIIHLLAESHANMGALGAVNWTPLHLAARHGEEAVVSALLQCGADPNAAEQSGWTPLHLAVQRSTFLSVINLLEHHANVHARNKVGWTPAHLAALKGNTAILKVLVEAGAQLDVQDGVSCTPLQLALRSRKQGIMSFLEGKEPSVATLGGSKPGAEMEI
In short: as §1

[7] = molecular target: T7, kinases of the scanMAX Kinase assay panel (Homo sapiens, UniProt Q92772); conditions: CDKL2; 1 uM
T7 construct: purchased DiscoverX Co. (contract measurement) scanMAX Kinase assay panel
T7 sequence (Q92772 1-493): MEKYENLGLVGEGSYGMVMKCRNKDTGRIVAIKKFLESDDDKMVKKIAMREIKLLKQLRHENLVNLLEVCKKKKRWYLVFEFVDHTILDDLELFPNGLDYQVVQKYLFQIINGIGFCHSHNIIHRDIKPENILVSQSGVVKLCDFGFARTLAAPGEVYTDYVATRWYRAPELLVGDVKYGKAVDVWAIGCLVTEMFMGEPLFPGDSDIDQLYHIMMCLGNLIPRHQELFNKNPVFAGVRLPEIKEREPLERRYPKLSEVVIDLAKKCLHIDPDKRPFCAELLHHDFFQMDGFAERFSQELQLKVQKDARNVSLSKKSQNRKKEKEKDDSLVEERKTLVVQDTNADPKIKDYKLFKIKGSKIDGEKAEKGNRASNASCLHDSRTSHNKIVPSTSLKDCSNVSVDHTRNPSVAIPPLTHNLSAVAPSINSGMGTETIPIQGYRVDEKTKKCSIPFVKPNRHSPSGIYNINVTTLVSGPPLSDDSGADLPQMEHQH
In short: as §1

[8] = molecular target: T8, kinases of the scanMAX Kinase assay panel (Homo sapiens, UniProt Q9NY57); conditions: kinase YANK2; 1 uM in DMSO
T8 construct: purchased DiscoverX Co. (contract measurement) scanMAX Kinase assay panel
In short: as §1

[9] = kinase RPS6KA4(Kin.Dom.1-N-terminal), read-out: % control, RPS6KA4(Kin.Dom.1-N-terminal)
[10] = kinase RPS6KA4(Kin.Dom.2-C-terminal), read-out: % control, RPS6KA4(Kin.Dom.2-C-terminal)

T1 sequence (O75676 whole entry): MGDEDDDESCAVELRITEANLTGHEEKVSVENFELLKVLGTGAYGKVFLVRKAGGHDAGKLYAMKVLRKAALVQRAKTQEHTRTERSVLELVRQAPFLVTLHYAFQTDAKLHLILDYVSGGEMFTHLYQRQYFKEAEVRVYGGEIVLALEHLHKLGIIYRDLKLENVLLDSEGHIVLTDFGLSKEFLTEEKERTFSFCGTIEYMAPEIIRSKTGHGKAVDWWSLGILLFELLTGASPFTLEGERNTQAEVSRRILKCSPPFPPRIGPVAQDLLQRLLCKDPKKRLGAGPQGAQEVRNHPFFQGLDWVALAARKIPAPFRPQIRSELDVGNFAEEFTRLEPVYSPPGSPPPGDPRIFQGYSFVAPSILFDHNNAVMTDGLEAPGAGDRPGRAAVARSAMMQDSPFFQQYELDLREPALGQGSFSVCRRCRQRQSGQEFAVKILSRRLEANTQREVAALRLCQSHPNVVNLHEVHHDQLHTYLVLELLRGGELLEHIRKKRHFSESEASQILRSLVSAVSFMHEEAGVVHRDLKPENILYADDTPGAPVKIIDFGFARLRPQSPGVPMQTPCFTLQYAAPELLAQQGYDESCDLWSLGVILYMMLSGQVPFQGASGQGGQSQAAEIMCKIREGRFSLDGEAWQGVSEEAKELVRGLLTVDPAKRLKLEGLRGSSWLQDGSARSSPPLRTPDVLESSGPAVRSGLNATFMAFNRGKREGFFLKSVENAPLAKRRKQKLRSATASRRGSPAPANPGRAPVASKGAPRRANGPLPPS
T8 sequence (Q9NY57 whole entry): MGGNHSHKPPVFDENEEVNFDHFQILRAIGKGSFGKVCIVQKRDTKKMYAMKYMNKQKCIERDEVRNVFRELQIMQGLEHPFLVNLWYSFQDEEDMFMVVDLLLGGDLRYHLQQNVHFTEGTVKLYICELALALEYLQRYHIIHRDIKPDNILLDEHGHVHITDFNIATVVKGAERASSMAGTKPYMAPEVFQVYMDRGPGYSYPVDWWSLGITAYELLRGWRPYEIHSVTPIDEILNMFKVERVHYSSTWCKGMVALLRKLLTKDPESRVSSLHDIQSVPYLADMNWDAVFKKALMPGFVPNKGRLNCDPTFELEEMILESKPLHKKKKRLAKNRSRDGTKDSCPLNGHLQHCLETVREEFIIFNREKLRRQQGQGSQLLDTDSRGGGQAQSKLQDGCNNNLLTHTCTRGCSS
T2 sequence (O94804 whole entry): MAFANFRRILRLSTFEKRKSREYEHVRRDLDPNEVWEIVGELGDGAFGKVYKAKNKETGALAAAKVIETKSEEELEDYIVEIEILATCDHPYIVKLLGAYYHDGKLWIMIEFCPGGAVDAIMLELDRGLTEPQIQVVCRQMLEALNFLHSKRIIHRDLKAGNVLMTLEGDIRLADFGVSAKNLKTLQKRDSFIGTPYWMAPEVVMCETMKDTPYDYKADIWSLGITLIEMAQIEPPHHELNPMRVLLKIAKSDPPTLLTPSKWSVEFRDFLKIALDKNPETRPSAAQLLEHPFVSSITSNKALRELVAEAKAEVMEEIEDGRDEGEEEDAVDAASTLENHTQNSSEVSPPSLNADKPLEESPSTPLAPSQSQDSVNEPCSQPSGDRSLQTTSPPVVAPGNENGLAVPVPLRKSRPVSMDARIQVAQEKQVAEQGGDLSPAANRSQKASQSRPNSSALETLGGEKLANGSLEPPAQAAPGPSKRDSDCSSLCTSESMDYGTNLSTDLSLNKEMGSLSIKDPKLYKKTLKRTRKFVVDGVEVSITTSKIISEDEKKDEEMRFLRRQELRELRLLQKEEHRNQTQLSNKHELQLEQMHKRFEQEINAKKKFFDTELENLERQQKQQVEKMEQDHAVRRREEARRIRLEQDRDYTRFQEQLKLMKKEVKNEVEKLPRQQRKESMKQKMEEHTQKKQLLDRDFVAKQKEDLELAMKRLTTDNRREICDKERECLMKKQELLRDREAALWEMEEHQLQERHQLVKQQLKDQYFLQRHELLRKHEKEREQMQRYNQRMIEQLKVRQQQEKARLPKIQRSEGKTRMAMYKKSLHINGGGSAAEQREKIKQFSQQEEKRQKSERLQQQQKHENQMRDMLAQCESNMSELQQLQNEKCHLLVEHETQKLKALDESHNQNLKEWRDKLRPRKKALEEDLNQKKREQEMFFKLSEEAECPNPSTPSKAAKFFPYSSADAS
T4 sequence (Q00532 whole entry): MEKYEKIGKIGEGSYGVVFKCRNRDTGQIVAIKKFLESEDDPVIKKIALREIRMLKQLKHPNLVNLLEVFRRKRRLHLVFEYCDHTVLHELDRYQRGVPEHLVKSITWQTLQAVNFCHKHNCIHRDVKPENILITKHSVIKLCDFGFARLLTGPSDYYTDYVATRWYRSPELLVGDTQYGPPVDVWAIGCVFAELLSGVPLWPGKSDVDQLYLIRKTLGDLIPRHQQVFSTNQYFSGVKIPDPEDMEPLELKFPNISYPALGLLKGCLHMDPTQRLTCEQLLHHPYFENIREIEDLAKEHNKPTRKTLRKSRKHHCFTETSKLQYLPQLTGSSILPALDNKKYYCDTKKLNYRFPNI
T3 sequence (P08922 28-2347): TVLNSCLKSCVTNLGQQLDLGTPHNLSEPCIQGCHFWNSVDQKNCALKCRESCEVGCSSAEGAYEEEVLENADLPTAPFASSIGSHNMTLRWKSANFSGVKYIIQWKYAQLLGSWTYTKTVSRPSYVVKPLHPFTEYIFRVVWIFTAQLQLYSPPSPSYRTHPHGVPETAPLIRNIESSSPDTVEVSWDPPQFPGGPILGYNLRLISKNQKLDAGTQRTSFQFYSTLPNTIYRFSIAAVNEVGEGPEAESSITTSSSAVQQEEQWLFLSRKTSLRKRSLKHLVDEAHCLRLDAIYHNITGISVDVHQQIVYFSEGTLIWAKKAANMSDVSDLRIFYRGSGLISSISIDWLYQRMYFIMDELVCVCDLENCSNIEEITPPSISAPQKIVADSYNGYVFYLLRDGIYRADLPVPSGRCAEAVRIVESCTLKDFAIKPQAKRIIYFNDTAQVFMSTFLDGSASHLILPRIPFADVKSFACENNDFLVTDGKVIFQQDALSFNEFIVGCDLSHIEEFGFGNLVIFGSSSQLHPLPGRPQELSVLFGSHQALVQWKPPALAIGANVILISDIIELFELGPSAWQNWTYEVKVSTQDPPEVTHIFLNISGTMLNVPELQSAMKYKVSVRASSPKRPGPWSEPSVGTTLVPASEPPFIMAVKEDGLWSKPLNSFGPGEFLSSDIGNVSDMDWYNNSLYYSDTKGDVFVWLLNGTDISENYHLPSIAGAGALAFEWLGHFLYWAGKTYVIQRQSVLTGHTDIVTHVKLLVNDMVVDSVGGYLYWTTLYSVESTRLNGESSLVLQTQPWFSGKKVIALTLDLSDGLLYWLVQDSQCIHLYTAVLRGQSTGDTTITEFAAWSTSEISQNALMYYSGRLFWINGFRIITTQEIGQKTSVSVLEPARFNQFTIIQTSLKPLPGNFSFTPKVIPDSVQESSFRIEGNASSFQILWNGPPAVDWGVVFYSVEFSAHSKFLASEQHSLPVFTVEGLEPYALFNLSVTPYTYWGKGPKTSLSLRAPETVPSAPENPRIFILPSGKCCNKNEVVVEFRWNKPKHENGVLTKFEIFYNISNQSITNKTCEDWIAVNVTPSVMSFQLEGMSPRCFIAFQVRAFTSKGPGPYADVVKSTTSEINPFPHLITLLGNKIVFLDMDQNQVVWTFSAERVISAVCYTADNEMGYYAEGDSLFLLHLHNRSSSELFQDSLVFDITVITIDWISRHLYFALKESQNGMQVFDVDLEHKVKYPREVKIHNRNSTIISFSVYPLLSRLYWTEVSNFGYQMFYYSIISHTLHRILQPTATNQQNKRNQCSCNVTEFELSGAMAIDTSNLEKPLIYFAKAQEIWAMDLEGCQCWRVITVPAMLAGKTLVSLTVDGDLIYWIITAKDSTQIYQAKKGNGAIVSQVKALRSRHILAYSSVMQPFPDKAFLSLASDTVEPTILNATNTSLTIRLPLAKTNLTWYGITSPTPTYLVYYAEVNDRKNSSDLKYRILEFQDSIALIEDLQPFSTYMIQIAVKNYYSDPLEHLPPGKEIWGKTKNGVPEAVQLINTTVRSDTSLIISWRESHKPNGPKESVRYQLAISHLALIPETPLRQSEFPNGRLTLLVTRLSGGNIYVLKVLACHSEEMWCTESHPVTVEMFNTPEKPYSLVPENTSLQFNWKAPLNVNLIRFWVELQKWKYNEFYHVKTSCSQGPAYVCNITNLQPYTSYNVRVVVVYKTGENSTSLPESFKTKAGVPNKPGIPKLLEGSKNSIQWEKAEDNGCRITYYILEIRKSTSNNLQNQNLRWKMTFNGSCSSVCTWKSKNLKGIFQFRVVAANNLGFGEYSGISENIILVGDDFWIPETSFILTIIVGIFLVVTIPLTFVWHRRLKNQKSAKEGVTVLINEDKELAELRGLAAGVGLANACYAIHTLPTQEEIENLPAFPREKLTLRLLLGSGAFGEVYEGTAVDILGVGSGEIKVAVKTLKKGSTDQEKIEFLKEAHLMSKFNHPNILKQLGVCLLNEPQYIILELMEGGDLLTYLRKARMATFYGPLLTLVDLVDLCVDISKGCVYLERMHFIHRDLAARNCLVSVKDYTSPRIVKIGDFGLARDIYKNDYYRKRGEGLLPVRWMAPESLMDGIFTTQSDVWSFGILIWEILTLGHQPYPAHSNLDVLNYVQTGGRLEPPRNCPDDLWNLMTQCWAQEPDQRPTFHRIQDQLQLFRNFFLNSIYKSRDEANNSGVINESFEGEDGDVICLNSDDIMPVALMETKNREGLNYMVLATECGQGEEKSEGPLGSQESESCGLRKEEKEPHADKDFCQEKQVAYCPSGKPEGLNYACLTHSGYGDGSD

| SMILES | remaining binding at 1 µM [1, 9] [%] | remaining binding at 1 µM [1, 10] [%] | remaining binding at 1 µM [2] [%] | remaining binding at 1 µM [3] [%] | remaining binding at 1 µM [4] [%] | remaining binding at 1 µM [5] [%] | remaining binding at 1 µM [6] [%] | remaining binding at 1 µM [7] [%] | remaining binding at 1 µM [8] [%] |
| --- | --- | --- | --- | --- | --- | --- | --- | --- | --- |
| CCNc1nc(Nc2ccc(C(=O)N3CCC(N4CCOCC4)CC3)cc2OC)nc2[nH]cc(C(F)(F)F)c12 [Example 104, (4-((4-(ethylamino)-5-(trifluoromethyl)-7H-pyrrolo[2,3-d]pyrimidine-2-yl)amino)-3-methoxyphenyl)(4-morpholinopiperidine-1-yl)methanone] | 100 | 18 | 100 | 22 | 88 | 100 | 95 | 100 | 100 |
| CC1(Nc2nc(Nc3cnn([C@H]4CCN(C5COC5)C[C@@H]4F)c3Cl)nc3[nH]cc(C#N)c23)CC1 [Example 52, 2-((5-chloro-1-((3S,4S)-3-fluoro-1-(oxetane-3-yl)piperidine-4-yl)-1H-pyrazole-4-yl)amino)((1-methylcyclopropyl)amino)-7H-pyrrolo[2,3-d]pyrimidine-5-carbonitrile] | 68 | 2.2 | 74 | 23 | 46 | 21 | 15 | 73 | 100 |
| CNc1nc(Nc2ccc(C(=O)N3CCOCC3)cc2OC)nc2[nH]cc(C#N)c12 [Example 1, 2-((2-methoxy-4-(morpholine-4-carbonyl)phenyl)amino)-4-(methylamino)-7H-pyrrolo[2,3-d]pyrimidine-5-carbonitrile] | 92 | 0.2 | 95 | 56 | 89 | 74 | 82 | 99 | 85 |

Reference: US11208412B2 (DAEGU-GYEONGBUK MEDICAL INNOVATION FOUNDATION, priority 2017, dated 2021)
